Test results as given in patent US20050112573A1, “Method of detecting toxic substance” (priority 2001, published 2005).

System: yeast genes (level of expressed mRNA)
Assay: DNA chip analysis of expressed mRNA of yeast genes after 2 h culture with a toxic chemical substance
Type: cell-based, Saccharomyces cerevisiae S288C
Procedure: Yeast (Saccharomyces cerevtisiae S288C (α SUC2mal mel gap2 CUP1)) were cultured at 25° C. on YPD medium (yeast extract 1%, polypepton 2%, glucose 2%). One of toxic chemical substances was added to the cell at logarithmic growth phase, and the cell was further cultured for two hours. Cell was cultured without any chemical substance in the same condition, and was used as control. Concentrations of the chemical substances were defined to inhibit the growth of the yeast but not lead to death.
After the completion of cultivation, the culture was centrifuged to collect the cells. To the cells, sodium acetate buffer (50 mM sodium acetate, 10 mM EDTA, 1% SDS) was added, and the mixture was shaken at 65° C. for five minutes, followed by returning to room temperature, and obtaining the supernatant, which procedure was repeated two times. To the supernatant, ½ amount of a solution of phenol/chloroform was added, and the mixture was centrifuged to give a supernatant, which was added with an equal amount of chloroform, and the mixture was centrifuged to give a supernatant. To the supernatant, an equal amount of isopropanol containing 0.3 M sodium acetate was added, and the mixture was allowed to stand at room temperature for 30 minutes, after which the mixture was centrifuged to give a sediment of the whole RNAs. Seventy % ethanol was added to the sediment, and the mixture was again centrifuged to give a sediment, which was then dried and dissolved in water. mRNA was isolated from the whole RNAs as followings. In view of the fact that a poly A chain is attached to the 3′ terminus of mRNA, a polynucleotide having a poly T structure which was immobilized on the surface of latex beads was used to trap the mRNA, and then the mRNA was washed and eluted with spine column (Oligotex-dT30<Super>mRNA Purification Kit, Takara). Reverse transcription of the mRNA was conducted with a reverse transcriptase (Super Script II Reverse Transcriptase; catalogue No. 18064-014, GibcoBRL) using fluorescence-labeled nucleotides to give cDNAs that were introduced with Cy3-dUTP or Cy5-dUTP during the reverse transcription.
The labeled cDNAs were dissolved in TE buffer (10 mM Tris-HCl/1 mM EDTA, pH8.0), and the solution was dropped on the DNA chip containing the whole genes of yeast (DNA Chip Research Inc. Japan) so that the cDNAs were hybridized on the DNA chip at 65° C. for over 12 hours. The fluoresces intensity of the DNA chip was read with a scanner, and the ratio relative to the fluorescence intensity resulting from the absence of chemical substance was estimated as the following, which is shown in Tables 1 to 9: [formula]
In the Tables, “Intensity” indicated in the rightmost column is a value of the level of expressed mRNA of each gene in control cells as divided by the average level of the expressions of the whole genes.

C=CC=O [(14), acrolein]
2.2: level of expressed mRNA in the presence of chemical substance/in its absence (gene YBR145W) | The level of expressed mRNA in the presence of chemical substance/absence: YCL056C (gene YCL056C)
1.6: level of expressed mRNA in the presence of chemical substance/in its absence (gene YBR111C) | The level of expressed mRNA in the presence of chemical substance/absence: YBR129C (gene YBR129C) | level of expressed mRNA in the presence of chemical substance/in its absence (gene YDR019C) | level of expressed mRNA in the presence of chemical substance/in its absence (gene YGL209W) | The level of expressed mRNA in the presence of chemical substance/absence: YGR156W (gene YGR156W)
0.8: level of expressed mRNA in the presence of chemical substance/in its absence (gene YBR023C) | The level of expressed mRNA in the presence of chemical substance/absence: YBR287W (gene YBR287W) | level of expressed mRNA in the presence of chemical substance/in its absence (gene YCL064C) | level of expressed mRNA in the presence of chemical substance/in its absence (gene YCR037C) | level of expressed mRNA in the presence of chemical substance/in its absence (gene YDL022W) | level of expressed mRNA in the presence of chemical substance/in its absence (gene YDR502C) | level of expressed mRNA in the presence of chemical substance/in its absence (gene YGR060W) | The level of expressed mRNA in the presence of chemical substance/absence: YGR198W (gene YGR198W) | The level of expressed mRNA in the presence of chemical substance/absence: YGR210C (gene YGR210C) | The level of expressed mRNA in the presence of chemical substance/absence: YGR266W (gene YGR266W)
0.6: The level of expressed mRNA in the presence of chemical substance/absence: YDR133C (gene YDR133C) | level of expressed mRNA in the presence of chemical substance/in its absence (gene YDR380W) | The level of expressed mRNA in the presence of chemical substance/absence: YEL044W (gene YEL044W) | The level of expressed mRNA in the presence of chemical substance/absence: YFR056C (gene YFR056C) | The level of expressed mRNA in the presence of chemical substance/absence: YGR237C (gene YGR237C)
2.1: The level of expressed mRNA in the presence of chemical substance/absence: YDL173W (gene YDL173W)
1.5: level of expressed mRNA in the presence of chemical substance/in its absence (gene YBL001C) | level of expressed mRNA in the presence of chemical substance/in its absence (gene YDR009W) | level of expressed mRNA in the presence of chemical substance/in its absence (gene YEL011W) | The level of expressed mRNA in the presence of chemical substance/absence: YGL057C (gene YGL057C) | The level of expressed mRNA in the presence of chemical substance/absence: YGR277C (gene YGR277C)
2.0: The level of expressed mRNA in the presence of chemical substance/absence: YAL049C (gene YAL049C) | The level of expressed mRNA in the presence of chemical substance/absence: YDR071C (gene YDR071C)
0.4: The level of expressed mRNA in the presence of chemical substance/absence: YGR211W (gene YGR211W)
1.1: The level of expressed mRNA in the presence of chemical substance/absence: YAL017W (gene YAL017W) | The level of expressed mRNA in the presence of chemical substance/absence: YAR064W (gene YAR064W) | level of expressed mRNA in the presence of chemical substance/in its absence (gene YAR071W) | The level of expressed mRNA in the presence of chemical substance/absence: YBR066C (gene YBR066C) | The level of expressed mRNA in the presence of chemical substance/absence: YBR255W (gene YBR255W) | level of expressed mRNA in the presence of chemical substance/in its absence (gene YCR098C) | The level of expressed mRNA in the presence of chemical substance/absence: YDL193W (gene YDL193W) | The level of expressed mRNA in the presence of chemical substance/absence: YDL233W (gene YDL233W) | The level of expressed mRNA in the presence of chemical substance/absence: YDR485C (gene YDR485C) | level of expressed mRNA in the presence of chemical substance/in its absence (gene YER026C) | level of expressed mRNA in the presence of chemical substance/in its absence (gene YGL001C) | The level of expressed mRNA in the presence of chemical substance/absence: YGL045W (gene YGL045W) | level of expressed mRNA in the presence of chemical substance/in its absence (gene YGL134W) | level of expressed mRNA in the presence of chemical substance/in its absence (gene YGL154C)
1.7: The level of expressed mRNA in the presence of chemical substance/absence: YBR063C (gene YBR063C) | The level of expressed mRNA in the presence of chemical substance/absence: YCR007C (gene YCR007C) | The level of expressed mRNA in the presence of chemical substance/absence: YGL183C (gene YGL183C)
1.0: The level of expressed mRNA in the presence of chemical substance/absence: YAL018C (gene YAL018C) | The level of expressed mRNA in the presence of chemical substance/absence: YBR051W (gene YBR051W) | The level of expressed mRNA in the presence of chemical substance/absence: YBR124W (gene YBR124W) | The level of expressed mRNA in the presence of chemical substance/absence: YCL044C (gene YCL044C) | The level of expressed mRNA in the presence of chemical substance/absence: YDR109C (gene YDR109C) | The level of expressed mRNA in the presence of chemical substance/absence: YDR128W (gene YDR128W) | The level of expressed mRNA in the presence of chemical substance/absence: YDR221W (gene YDR221W) | The level of expressed mRNA in the presence of chemical substance/absence: YDR338C (gene YDR338C) | level of expressed mRNA in the presence of chemical substance/in its absence (gene YEL020C) | The level of expressed mRNA in the presence of chemical substance/absence: YFR026C (gene YFR026C) | level of expressed mRNA in the presence of chemical substance/in its absence (gene YGL104C) | level of expressed mRNA in the presence of chemical substance/in its absence (gene YGR282C)
0.7: level of expressed mRNA in the presence of chemical substance/in its absence (gene YBR126C) | level of expressed mRNA in the presence of chemical substance/in its absence (gene YCL009C) | The level of expressed mRNA in the presence of chemical substance/absence: YDR316W (gene YDR316W)
1.8: The level of expressed mRNA in the presence of chemical substance/absence: YAL014C (gene YAL014C) | level of expressed mRNA in the presence of chemical substance/in its absence (gene YBR068C) | The level of expressed mRNA in the presence of chemical substance/absence: YDR078C (gene YDR078C)
1.9: The level of expressed mRNA in the presence of chemical substance/absence: YER182W (gene YER182W) | The level of expressed mRNA in the presence of chemical substance/absence: YGR243W (gene YGR243W)
3.1: level of expressed mRNA in the presence of chemical substance/in its absence (gene YFR015C)
1.2: level of expressed mRNA in the presence of chemical substance/in its absence (gene YBR014C) | The level of expressed mRNA in the presence of chemical substance/absence: YDL046W (gene YDL046W) | The level of expressed mRNA in the presence of chemical substance/absence: YDL089W (gene YDL089W) | The level of expressed mRNA in the presence of chemical substance/absence: YDR281C (gene YDR281C) | The level of expressed mRNA in the presence of chemical substance/absence: YDR421W (gene YDR421W) | The level of expressed mRNA in the presence of chemical substance/absence: YER092W (gene YER092W) | The level of expressed mRNA in the presence of chemical substance/absence: YFL042C (gene YFL042C) | The level of expressed mRNA in the presence of chemical substance/absence: YGL041C (gene YGL041C)
1.3: level of expressed mRNA in the presence of chemical substance/in its absence (gene YAL054C) | The level of expressed mRNA in the presence of chemical substance/absence: YAR047C (gene YAR047C) | level of expressed mRNA in the presence of chemical substance/in its absence (gene YBR035C) | level of expressed mRNA in the presence of chemical substance/in its absence (gene YBR050C) | level of expressed mRNA in the presence of chemical substance/in its absence (gene YBR183W) | level of expressed mRNA in the presence of chemical substance/in its absence (gene YDR410C) | The level of expressed mRNA in the presence of chemical substance/absence: YDR425W (gene YDR425W) | The level of expressed mRNA in the presence of chemical substance/absence: YDR504C (gene YDR504C) | level of expressed mRNA in the presence of chemical substance/in its absence (gene YER069W) | The level of expressed mRNA in the presence of chemical substance/absence: YGR250C (gene YGR250C)
2.5: The level of expressed mRNA in the presence of chemical substance/absence: YBR013C (gene YBR013C) | level of expressed mRNA in the presence of chemical substance/in its absence (gene YDR487C)
0.9: level of expressed mRNA in the presence of chemical substance/in its absence (gene YAL012W) | The level of expressed mRNA in the presence of chemical substance/absence: YBL044W (gene YBL044W) | The level of expressed mRNA in the presence of chemical substance/absence: YBL100C (gene YBL100C) | The level of expressed mRNA in the presence of chemical substance/absence: YBR012C (gene YBR012C) | level of expressed mRNA in the presence of chemical substance/in its absence (gene YBR029C) | The level of expressed mRNA in the presence of chemical substance/absence: YBR281C (gene YBR281C) | level of expressed mRNA in the presence of chemical substance/in its absence (gene YCR048W) | The level of expressed mRNA in the presence of chemical substance/absence: YDR090C (gene YDR090C) | The level of expressed mRNA in the presence of chemical substance/absence: YDR250C (gene YDR250C) | The level of expressed mRNA in the presence of chemical substance/absence: YDR278C (gene YDR278C) | level of expressed mRNA in the presence of chemical substance/in its absence (gene YGL039W) | The level of expressed mRNA in the presence of chemical substance/absence: YGL223C (gene YGL223C) | The level of expressed mRNA in the presence of chemical substance/absence: YGR139W (gene YGR139W)
0.5: level of expressed mRNA in the presence of chemical substance/in its absence (gene YAL038W) | The level of expressed mRNA in the presence of chemical substance/absence: YBR162C (gene YBR162C) | level of expressed mRNA in the presence of chemical substance/in its absence (gene YBR222C) | level of expressed mRNA in the presence of chemical substance/in its absence (gene YGL022W) | level of expressed mRNA in the presence of chemical substance/in its absence (gene YGL253W)
3.2: The level of expressed mRNA in the presence of chemical substance/absence: YDR140W (gene YDR140W)
1.4: level of expressed mRNA in the presence of chemical substance/in its absence (gene YAL044C) | level of expressed mRNA in the presence of chemical substance/in its absence (gene YBR299W) | The level of expressed mRNA in the presence of chemical substance/absence: YDR271C (gene YDR271C) | The level of expressed mRNA in the presence of chemical substance/absence: YDR366C (gene YDR366C) | The level of expressed mRNA in the presence of chemical substance/absence: YGL088W (gene YGL088W) | The level of expressed mRNA in the presence of chemical substance/absence: YGR038W (gene YGR038W)
